Assay results as given in patent publication US4895835A, “Muramyl peptide derivatives and use thereof” (priority 1987, dated 1990).

How the values were obtained:
BCG killed vaccine = experiment: Enhancing action on BCG vaccine (adjuvant activity), 24 hours foot-pad test; type: in vivo; settings: ICR mouse; s.c. 0.2 ml mixture of BCG killed vaccine (100 μg/ml) and compound in Freund's incomplete adjuvant (1000 μg/ml); tuberculin 10 μg after 14 days; measured after 24 hours
Method: (1) Enhancing action on BCG vaccine (adjuvant activity)
0.2 ml of an equivalent weight mixture of a solution of BCG killed vaccine in physiological saline (100 μg/ml) and a solution of a compound of the invention in Freund's incomplete adjuvant (1000 μg/ml) was subcutaneously injected to the back of ICR mouse (one group consisting of 7 mice). After 14 days, 10 μg of tuberculin was intradermally injected into the hind foot-pad. Swelling of the foot-pad was measured after 24 hours (24 hours foot-pad test).
The control is the above mentioned mixture excluded a compound of the invention.

[1] = tested on: B type hepatitis vaccine (HBs); experiment: Enhancing effect on hepatitis vaccine (adjuvant activity), IgG antibody by ELISA; type: in vivo; settings: CDF1 mouse; for Anti HBs-ELISA unit, Primary response serum: i.p. 0.2 ml compound (100 μg/ml) mixed with HBs vaccine, serum at 3 weeks; for Anti HBs-ELISA unit, Secondary response serum: second i.p. injection of 0.2 ml test solution, serum at 2 weeks
Method: (2) Enhancing effect on hepatitis vaccine (adjuvant activity)
A compound of the invention was dissolved or suspended in physiological saline (100 μg/ml), and mixed with a solution of B type hepatitis vaccine (HBs) in physiological saline (100 μg/m) at an equivalent weight ratio to obtain the test solution. A solution excluded the compound of the invention from the test solution was used as control.
The test solution (0.2 ml) was intraperitoneally injected into CDF1 mouse (one group consisting of 10 mice). At 3 weeks after the administration, a blood was taken from the intravenous vein in eyeground of each the mice and centrifuged to obtain serum (primary response serum). Further, 0.2 ml of the test solution was again intraperitoneally injected into each mice, and at 2 weeks stage, serum was separated in the similar way (secondary response serum).
Value for IgG antibody against B type hepatitis virus of the resulting serum was measured by ELISA method.

[2] = tested on: influenza HA vaccine (A/Bangkok/10/83 strain, H1N1); experiment: Enhancing effect on influenza HA vaccine (adjuvant activity), ELISA; type: in vivo; settings: CDF1 mouse, compound (100 μg/ml) mixed with influenza HA vaccine (100 CCA/ml)
Method: (3) Enhancing effect on influenza HA vaccine (adjuvant activity)
A compound of the invention was dissolved or suspended in physiological saline (100 μg/ml). Separately, influenza HA vaccine (A/Bangkok/10/83 strain, H1N1) was dissolved in physiological saline (100 CCA/ml). These two solutions were mixed in an equivalent weight to make the test solution. Control is a solution excluded the compound of the invention from the test solution.
The test solution was administered into CDF1 mouse in a similar way to that of the test of enhancing action for hepatitis vaccine as mentioned above, to obtain primary and secondary response sera.

[3] = tested on: leukemia cells of L-1210 mouse; experiment: Activation for macrophages: cytostatic rate of intraperitoneal macrophages on leukemia cells; type: in vivo; settings: CDF1 mouse i.p. 500 μg/ml, 0.2 ml; macrophages collected after 4 days; macrophages:L-1210 cells 20:1; 72 hours
Method: (4) Activation for macrophages
A test solution of a compound of the invention in physicological saline (500 μg/ml, 0.2 ml) was intraperioneally injected into CDF1 mouse (one group consisting of mice). Intraperioneal macrophages which were collected after 4 days and leukemia cells of L-1210 mouse were mixed at the cell ratio of 20 and 1. Each 200 μl of the mixture was put on a microplate having 96 holes. After 72 hours, numbers of cells in each holes were counted, and cytostatic rate of the mixture was measured.

[4] = Stimulation effect on antibody producing cells (plaque numbers, Cunningham technique); type: in vivo, ICR mouse; settings: for Plaque No.: ICR mouse, SRBC i.v. and compound 500 μg/ml, 0.2 ml i.v., splenic cells after 4 days; for Stimulation index: plaque number relative to control (saline) = 1
Method: (5) Stimulation effect on anti-body precluding cells
A solution of sheep […] (SRBC) in phosphate buffered physiological saline (5×10^7 cells/ml), 0.2 ml was injected into tail intravenous vein of ICR mouse (7 mice per group). At the same time, a solution of a compound of the invention in physiological saline (500 μg/ml), 0.2 ml was similarly injected. After 4 days, lien was picked up from the treated mouse to obtain splenic cells. Plaque numbers were measured by Cunningham technique.

E. coli (JC-2) = experiment: Phylactic effect, E. coli infection; type: in vivo; settings: ICR mouse; compound 500 μg/ml, 0.2 ml i.p. one day before infection i.p. 1×10^7 /mouse; after 7 days of infection
Method: (§1) A solution of a compound of the invention in physiological saline (500 μg/ml), 0.2 ml was intraperitoneally injected into ICR mouse (20 mice per group). After a day, E. coli (JC-2) and Psud. aeruginosa (NCTC 10490) were incubated through intraperitoneal route so as to be at concentration of 1×10^7 /mouse. Survival rate after 7 days of infection was measured.

[5] = tested on: Psud. aeruginosa (NCTC 10490); experiment: Phylactic effect, Psud. aeruginosa infection; type: in vivo; settings: ICR mouse; compound 500 μg/ml, 0.2 ml i.p. one day before infection i.p. 1×10^7 /mouse; after 7 days of infection
Method: as §1

Meth A fibrosarcomas = experiment: Antitumour effect, Meth A fibrosarcoma; type: in vivo; settings: BALB/C mouse; s.c. 0.2 ml mixture of Meth A cells (1×10^6 cells/ml) and compound (1,000 μg/ml); after 35 days
Method: Meth A fibrosarcomas were suspended in phosphate buffered physiological saline (1×10^6 cells/ml). Separately, a solution of a compound of the invention in physiological saline was prepared (1,000 μg/ml). An equivalent weight mixture of these two solution (0.2 ml) was subcutaneously injected into BALB/C mouse (20 mice per group). Survival rate after 35 days was measured.

SMILES | Swelling of Foot-pad (BCG killed vaccine) | Anti HBs-ELISA unit, Primary response serum [1] | Anti HBs-ELISA unit, Secondary response serum [1] | Anti-influenza HA virus ELISA unit, Primary response serum [2] | Anti-influenza HA virus ELISA unit, Secondary response serum [2] | Cytostatic rate [3] | Plaque No. [4] | Stimulation index [4] | Survival rate, E. coli (E. coli (JC-2)) | Survival rate, Psud. aeruginosa [5] | Survival rate (Meth A fibrosarcomas)
CCCCCCCCCCCC(=O)O[C@H](CCCCCCCCCCC)CC(=O)OC[C@H]1O[C@@H](S)[C@H](NC(C)=O)[C@@H](O[C@H](C)C(=O)N[C@@H](C)C(=O)N[C@H](CCC(=O)OC)C(N)=O)[C@@H]1O [Example 7, N-[[2-O-{2-Acetamido-2,3-dideoxy-6-O-[(3R)-3-dodecanoyloxytetradecanoyl]-1-thio-β-D-glucopyranos-3-yl}-D-lactoyl]]-L-alanyl-D-isoglutamine methyl ester] | 50.6 ± 13.6 × 0.01 mm | 2,500 ELISA unit | 110,000 ELISA unit | 2,000 ELISA unit | 26,000 ELISA unit | 22.8 ± 2.6% | 10.88 ± 9.8 × 10^3 | 2.3 | 30% | 20% | 10%
CCCCCCCCCCCCCCCC(=O)O[C@H](CCCCCCCCCCC)CC(=O)OC[C@H]1OC[C@H](NC(C)=O)[C@@H](O[C@H](C)C(=O)N[C@@H](C)C(=O)N[C@H](CCC(=O)OC)C(N)=O)[C@@H]1O [Example 6] | 86.4 ± 22.1 × 0.01 mm | 6,200 ELISA unit | 220,000 ELISA unit | 2,500 ELISA unit | 30,000 ELISA unit | 42.6 ± 3.2% | 6.81 ± 4.8 × 10^3 | 1.4 | 60% | 50% | 30%
